Like-named read-outs stand apart in the source and are kept apart here.
Key:
Assay in all cases: KinomeScan kinase panel, single concentration 10 µM
Type in all cases: binding
[1] = target: T1, KinomeScan kinase panel (Homo sapiens, UniProt P15056, V600E); conditions: BRAF(V600E), 10 µM; read-out: score (%)
T1 construct: purchased DiscoveRx (KinomeScan)

[2] = target: T2, KinomeScan kinase panel (Homo sapiens, UniProt P37023); conditions: ACVRL1, 10 µM; read-out: score (%)
T2 construct: purchased DiscoveRx (KinomeScan)

[3] = target: T3, KinomeScan kinase panel (Homo sapiens, UniProt Q9UBE8); conditions: NLK, 10 µM; read-out: score (%)
T3 construct: purchased DiscoveRx (KinomeScan)
T3 sequence (Q9UBE8 1-527): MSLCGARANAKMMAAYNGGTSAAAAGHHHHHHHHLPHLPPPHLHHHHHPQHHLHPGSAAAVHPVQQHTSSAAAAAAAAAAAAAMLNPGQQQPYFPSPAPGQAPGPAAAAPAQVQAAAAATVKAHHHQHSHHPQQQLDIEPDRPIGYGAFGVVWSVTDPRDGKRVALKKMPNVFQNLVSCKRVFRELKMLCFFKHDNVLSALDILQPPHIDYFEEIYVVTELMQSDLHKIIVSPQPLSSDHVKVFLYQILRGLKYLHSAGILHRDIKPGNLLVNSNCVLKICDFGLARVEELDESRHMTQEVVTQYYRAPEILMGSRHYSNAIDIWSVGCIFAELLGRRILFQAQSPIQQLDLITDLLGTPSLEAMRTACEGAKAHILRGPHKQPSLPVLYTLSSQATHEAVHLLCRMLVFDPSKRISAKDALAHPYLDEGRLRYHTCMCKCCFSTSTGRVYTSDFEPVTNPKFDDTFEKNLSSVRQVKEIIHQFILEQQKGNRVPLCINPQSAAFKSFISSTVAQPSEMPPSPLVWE

[4] = target: T4, KinomeScan kinase panel (Homo sapiens, UniProt Q9H2K8); conditions: read-out: score (%)
T4 construct: purchased DiscoveRx (KinomeScan)
T4 sequence (Q9H2K8 1-898): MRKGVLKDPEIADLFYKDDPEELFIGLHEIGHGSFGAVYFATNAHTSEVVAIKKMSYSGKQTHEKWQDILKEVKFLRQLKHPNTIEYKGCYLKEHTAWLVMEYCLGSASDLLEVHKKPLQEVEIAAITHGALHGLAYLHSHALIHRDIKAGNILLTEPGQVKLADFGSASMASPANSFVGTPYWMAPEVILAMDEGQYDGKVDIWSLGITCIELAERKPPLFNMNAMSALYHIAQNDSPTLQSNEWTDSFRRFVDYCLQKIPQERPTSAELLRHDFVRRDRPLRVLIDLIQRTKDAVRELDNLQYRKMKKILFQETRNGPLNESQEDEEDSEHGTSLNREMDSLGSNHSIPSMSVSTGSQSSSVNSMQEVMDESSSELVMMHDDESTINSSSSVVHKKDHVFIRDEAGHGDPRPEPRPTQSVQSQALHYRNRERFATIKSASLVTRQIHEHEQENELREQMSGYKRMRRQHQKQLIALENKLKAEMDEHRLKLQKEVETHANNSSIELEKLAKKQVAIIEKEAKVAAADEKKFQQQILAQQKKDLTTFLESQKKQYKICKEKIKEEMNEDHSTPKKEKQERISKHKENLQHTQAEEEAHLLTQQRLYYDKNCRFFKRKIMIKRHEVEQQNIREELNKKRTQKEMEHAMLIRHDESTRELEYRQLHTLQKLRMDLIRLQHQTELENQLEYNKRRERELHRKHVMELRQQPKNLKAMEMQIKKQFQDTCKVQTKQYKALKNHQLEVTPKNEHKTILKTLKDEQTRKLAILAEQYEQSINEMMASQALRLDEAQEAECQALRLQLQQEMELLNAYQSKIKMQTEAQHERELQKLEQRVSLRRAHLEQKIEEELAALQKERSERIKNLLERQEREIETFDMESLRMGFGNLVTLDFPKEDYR

[5] = target: T5, KinomeScan kinase panel (Homo sapiens, UniProt P31152); conditions: ERK4, 10 µM; read-out: score (%)
T5 construct: purchased DiscoveRx (KinomeScan)

[6] = target: T6, KinomeScan kinase panel (Homo sapiens, UniProt P42680); conditions: 10 µM, read-out: score (%)
T6 construct: purchased DiscoveRx (KinomeScan)
T6 sequence (P42680 1-631): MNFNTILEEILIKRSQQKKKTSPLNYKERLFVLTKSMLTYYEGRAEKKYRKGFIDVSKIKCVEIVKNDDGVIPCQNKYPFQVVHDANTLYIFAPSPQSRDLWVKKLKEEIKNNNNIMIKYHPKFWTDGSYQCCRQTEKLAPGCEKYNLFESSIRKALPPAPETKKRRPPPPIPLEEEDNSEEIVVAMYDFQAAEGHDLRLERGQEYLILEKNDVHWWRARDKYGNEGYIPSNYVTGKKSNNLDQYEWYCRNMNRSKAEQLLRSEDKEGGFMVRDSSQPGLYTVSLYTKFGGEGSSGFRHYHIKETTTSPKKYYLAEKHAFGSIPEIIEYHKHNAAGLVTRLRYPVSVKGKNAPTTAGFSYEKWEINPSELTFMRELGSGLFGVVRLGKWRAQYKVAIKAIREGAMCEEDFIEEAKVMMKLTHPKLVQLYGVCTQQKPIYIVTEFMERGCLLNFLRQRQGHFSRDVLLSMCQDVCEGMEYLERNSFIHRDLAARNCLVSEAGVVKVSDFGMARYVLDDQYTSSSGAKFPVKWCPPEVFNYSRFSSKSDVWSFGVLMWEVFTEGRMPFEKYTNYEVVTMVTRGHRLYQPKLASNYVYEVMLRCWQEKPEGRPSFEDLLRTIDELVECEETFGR

[7] = target: T7, KinomeScan kinase panel (Homo sapiens, UniProt P0C1S8); conditions: kinase WEE2; 10 µM; read-out: score (%)
T7 construct: purchased DiscoveRx (KinomeScan)

[8] = target: T8, KinomeScan kinase panel (Homo sapiens, UniProt Q15303); conditions: ERBB4, 10 µM; read-out: score (%)
T8 construct: purchased DiscoveRx (KinomeScan)
T8 sequence (Q15303 26-1308): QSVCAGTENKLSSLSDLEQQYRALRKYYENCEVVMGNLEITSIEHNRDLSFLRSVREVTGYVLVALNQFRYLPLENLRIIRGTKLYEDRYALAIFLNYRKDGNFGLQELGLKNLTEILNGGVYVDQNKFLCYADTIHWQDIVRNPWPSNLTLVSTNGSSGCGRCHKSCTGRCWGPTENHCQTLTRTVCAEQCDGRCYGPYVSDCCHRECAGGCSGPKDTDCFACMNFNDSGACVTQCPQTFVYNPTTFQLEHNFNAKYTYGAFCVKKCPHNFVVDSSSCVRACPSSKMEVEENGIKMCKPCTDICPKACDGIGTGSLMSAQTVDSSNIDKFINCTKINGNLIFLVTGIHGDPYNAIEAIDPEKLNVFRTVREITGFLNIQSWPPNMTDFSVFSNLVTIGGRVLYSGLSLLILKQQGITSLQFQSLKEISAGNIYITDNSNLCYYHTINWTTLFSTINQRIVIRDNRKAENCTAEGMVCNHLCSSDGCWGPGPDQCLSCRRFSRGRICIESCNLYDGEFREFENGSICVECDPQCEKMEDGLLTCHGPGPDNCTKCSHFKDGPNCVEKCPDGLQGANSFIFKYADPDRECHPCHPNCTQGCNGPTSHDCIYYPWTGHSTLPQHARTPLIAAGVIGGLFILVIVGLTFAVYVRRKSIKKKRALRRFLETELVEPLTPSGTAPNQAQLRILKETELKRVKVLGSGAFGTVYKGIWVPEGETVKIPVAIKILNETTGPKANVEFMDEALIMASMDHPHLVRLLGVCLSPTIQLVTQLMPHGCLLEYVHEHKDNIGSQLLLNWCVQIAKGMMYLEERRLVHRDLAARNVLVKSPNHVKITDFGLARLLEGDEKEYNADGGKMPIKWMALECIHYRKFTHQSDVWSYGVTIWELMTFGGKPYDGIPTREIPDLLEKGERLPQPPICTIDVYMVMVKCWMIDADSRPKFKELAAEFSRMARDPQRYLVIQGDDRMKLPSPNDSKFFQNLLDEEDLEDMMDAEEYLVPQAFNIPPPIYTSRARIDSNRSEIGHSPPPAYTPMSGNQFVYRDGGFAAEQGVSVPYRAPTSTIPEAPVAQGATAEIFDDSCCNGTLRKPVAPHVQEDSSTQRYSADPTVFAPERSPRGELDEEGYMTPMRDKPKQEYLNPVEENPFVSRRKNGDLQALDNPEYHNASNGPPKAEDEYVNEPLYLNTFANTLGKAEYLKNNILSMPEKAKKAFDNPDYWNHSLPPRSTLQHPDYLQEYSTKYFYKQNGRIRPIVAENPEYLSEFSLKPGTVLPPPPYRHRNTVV

T5 sequence (P31152 whole entry): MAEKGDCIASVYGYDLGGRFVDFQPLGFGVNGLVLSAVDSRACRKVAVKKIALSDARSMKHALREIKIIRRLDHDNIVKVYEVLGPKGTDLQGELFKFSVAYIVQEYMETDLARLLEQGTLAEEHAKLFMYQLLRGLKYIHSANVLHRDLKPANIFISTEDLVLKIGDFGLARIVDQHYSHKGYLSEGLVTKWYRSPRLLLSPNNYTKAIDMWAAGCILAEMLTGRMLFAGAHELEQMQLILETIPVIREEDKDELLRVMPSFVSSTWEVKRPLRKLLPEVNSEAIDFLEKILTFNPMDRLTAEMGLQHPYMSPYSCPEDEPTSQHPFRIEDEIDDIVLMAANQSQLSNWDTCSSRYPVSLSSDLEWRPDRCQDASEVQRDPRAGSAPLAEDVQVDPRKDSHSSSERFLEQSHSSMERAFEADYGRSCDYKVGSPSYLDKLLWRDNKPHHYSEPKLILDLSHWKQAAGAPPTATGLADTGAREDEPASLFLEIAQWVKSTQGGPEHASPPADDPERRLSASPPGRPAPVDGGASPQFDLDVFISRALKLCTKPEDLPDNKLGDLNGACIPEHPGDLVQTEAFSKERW
T1 sequence (P15056 whole entry V600E): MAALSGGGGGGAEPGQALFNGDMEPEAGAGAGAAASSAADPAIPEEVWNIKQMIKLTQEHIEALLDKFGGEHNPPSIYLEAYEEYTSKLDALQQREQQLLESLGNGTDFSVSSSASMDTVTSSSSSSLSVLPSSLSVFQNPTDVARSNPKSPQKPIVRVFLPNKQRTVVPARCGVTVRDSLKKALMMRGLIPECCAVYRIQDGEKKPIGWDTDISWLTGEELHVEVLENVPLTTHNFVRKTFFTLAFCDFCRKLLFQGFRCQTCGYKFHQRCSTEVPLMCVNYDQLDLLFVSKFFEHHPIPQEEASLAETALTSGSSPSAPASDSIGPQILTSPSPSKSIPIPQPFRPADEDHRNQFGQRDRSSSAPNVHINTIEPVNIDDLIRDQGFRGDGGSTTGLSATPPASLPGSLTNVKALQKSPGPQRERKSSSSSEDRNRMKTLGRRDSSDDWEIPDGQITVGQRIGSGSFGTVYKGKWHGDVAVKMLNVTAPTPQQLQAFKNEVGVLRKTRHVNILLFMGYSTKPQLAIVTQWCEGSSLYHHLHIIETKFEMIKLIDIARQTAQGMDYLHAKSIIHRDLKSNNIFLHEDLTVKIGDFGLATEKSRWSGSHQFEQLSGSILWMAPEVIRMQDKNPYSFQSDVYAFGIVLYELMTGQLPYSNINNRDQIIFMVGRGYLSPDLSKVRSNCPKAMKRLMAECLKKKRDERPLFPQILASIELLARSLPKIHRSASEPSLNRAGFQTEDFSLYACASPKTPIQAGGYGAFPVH
T7 sequence (P0C1S8 whole entry): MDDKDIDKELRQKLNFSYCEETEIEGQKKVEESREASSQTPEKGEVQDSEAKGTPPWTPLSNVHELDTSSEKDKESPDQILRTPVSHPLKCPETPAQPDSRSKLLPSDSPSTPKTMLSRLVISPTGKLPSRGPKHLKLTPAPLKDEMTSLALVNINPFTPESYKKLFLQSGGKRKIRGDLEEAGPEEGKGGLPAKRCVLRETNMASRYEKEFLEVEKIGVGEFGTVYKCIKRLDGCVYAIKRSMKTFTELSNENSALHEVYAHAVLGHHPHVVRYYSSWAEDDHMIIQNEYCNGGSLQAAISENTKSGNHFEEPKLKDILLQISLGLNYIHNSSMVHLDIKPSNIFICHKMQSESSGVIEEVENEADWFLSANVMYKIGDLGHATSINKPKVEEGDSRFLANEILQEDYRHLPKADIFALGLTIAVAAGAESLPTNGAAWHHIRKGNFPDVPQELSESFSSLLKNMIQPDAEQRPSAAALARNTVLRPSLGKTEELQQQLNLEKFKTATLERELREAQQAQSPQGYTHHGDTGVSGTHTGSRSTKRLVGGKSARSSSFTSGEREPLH
T2 sequence (P37023 22-503): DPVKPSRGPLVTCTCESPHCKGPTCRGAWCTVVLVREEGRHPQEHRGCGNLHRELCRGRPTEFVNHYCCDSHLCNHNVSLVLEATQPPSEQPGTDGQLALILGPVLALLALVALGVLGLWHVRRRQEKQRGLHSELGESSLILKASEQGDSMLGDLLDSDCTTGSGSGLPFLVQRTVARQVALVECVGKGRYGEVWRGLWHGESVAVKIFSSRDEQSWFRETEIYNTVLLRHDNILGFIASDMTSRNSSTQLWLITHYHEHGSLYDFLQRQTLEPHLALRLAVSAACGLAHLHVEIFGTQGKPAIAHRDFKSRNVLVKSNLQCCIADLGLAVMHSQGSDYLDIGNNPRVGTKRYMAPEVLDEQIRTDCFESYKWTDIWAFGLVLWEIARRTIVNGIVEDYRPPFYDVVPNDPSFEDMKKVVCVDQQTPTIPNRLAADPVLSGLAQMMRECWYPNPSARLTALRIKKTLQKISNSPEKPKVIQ

CCN1CCN(Cc2ccc(NC(=O)c3ccc(C)c(NC(=O)c4cncc(-c5cccs5)c4)c3)cc2C(F)(F)F)CC1 [ALW-II-41-27]
remaining binding at 10 µM [1]: 0.55% | remaining binding at 10 µM [2]: > 30% | remaining binding at 10 µM [3]: 7.2% | remaining binding at 10 µM ([4]; kinase TAOK3, 10 µM): 2.8% | remaining binding at 10 µM [5]: > 30% | remaining binding at 10 µM ([6]; kinase TEC): 1.7% | remaining binding at 10 µM [7]: > 30% | remaining binding at 10 µM [8]: 1.3%

CCN1CCN(Cc2ccc(NC(=O)c3ccc(C)c(/C=C/c4cnc5[nH]ccc5c4Cl)c3)cc2C(F)(F)F)CC1 [HG-6-63-01, (E)-3-(2-(4-chloro-1H-pyrrolo[2,3-b]pyridin-5-yl)vinyl)-N-(4-((4-ethylpiperazin-1-yl)methyl)-3-(trifluoromethyl)phenyl)-4-methylbenzamide]
remaining binding at 10 µM [1]: 0.2% | remaining binding at 10 µM [2]: > 30% | remaining binding at 10 µM [3]: 6.8% | remaining binding at 10 µM ([4]; TAOK3, 10 µM): 0.1% | remaining binding at 10 µM [5]: > 30% | remaining binding at 10 µM ([6]; TEC): 1.2% | remaining binding at 10 µM [7]: 15% | remaining binding at 10 µM [8]: 0.7%

CCN1CCN(Cc2ccc(NC(=O)c3ccc(C)c(C#Cc4cccnc4)c3)cc2C(F)(F)F)CC1 [XMD15-44]
remaining binding at 10 µM [1]: 0.05% | remaining binding at 10 µM [2]: > 30% | remaining binding at 10 µM [3]: 8.2% | remaining binding at 10 µM ([4]; kinase TAOK3, 10 µM): 0% | remaining binding at 10 µM [5]: > 30% | remaining binding at 10 µM ([6]; kinase TEC): 3.7% | remaining binding at 10 µM [7]: 100% | remaining binding at 10 µM [8]: 1.8%
